Among the data in the supplement of paper PMC10307832 are relative viability values, retold here.

What all share (experiment): relative viability (nuclei count vs DMSO), 5 days (fraction); higher = more cells survive
Compound in the assay “Everolimus + OSI-027”: CO[C@H]1C[C@@H]2CC[C@@H](C)[C@@](O)(O2)C(=O)C(=O)N2CCCC[C@H]2C(=O)O[C@H]([C@H](C)C[C@@H]2CC[C@@H](OCCO)[C@H](OC)C2)CC(=O)[C@H](C)/C=C(\C)[C@@H](O)[C@@H](OC)C(=O)[C@H](C)C[C@H](C)/C=C/C=C/C=C/1C [Everolimus] + COc1cccc2cc(-c3nc([C@H]4CC[C@H](C(=O)O)CC4)n4ncnc(N)c34)[nH]c12 [OSI-027] (partner 0.5 µM)
A digest of the protocol: (§1)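 Cells from lung cancer lines were seeded into 1536-well plates and, one day later, dosed by pin tool. Treatments were either a single drug or a fixed dose of an anchor drug with five library-drug doses (not always all listed) in √10 steps. After 5 days, nuclei were stained in a one-step fixation (final 0.05% Triton X-100, 1% formaldehyde, 1 ug/ml Hoechst) and counted on 4× images, and relative viability is the treated-to-vehicle nuclei ratio, as the median of duplicate plates.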

Compound in the assay “Everolimus + Luminespib”: CO[C@H]1C[C@@H]2CC[C@@H](C)[C@@](O)(O2)C(=O)C(=O)N2CCCC[C@H]2C(=O)O[C@H]([C@H](C)C[C@@H]2CC[C@@H](OCCO)[C@H](OC)C2)CC(=O)[C@H](C)/C=C(\C)[C@@H](O)[C@@H](OC)C(=O)[C@H](C)C[C@H](C)/C=C/C=C/C=C/1C [Everolimus] + CCNC(=O)c1noc(-c2cc(C(C)C)c(O)cc2O)c1-c1ccc(CN2CCOCC2)cc1 [Luminespib] (partner 0.01 µM)
A digest of the protocol:
as §1

Compound in the assay “Everolimus + Lapatinib”: CO[C@H]1C[C@@H]2CC[C@@H](C)[C@@](O)(O2)C(=O)C(=O)N2CCCC[C@H]2C(=O)O[C@H]([C@H](C)C[C@@H]2CC[C@@H](OCCO)[C@H](OC)C2)CC(=O)[C@H](C)/C=C(\C)[C@@H](O)[C@@H](OC)C(=O)[C@H](C)C[C@H](C)/C=C/C=C/C=C/1C [Everolimus] + CS(=O)(=O)CCNCc1ccc(-c2ccc3ncnc(Nc4ccc(OCc5cccc(F)c5)c(Cl)c4)c3c2)o1 [Lapatinib] (partner 2 µM)
A digest of the protocol:
as §1

Compound in the assay “Everolimus + Linsitinib”: CO[C@H]1C[C@@H]2CC[C@@H](C)[C@@](O)(O2)C(=O)C(=O)N2CCCC[C@H]2C(=O)O[C@H]([C@H](C)C[C@@H]2CC[C@@H](OCCO)[C@H](OC)C2)CC(=O)[C@H](C)/C=C(\C)[C@@H](O)[C@@H](OC)C(=O)[C@H](C)C[C@H](C)/C=C/C=C/C=C/1C [Everolimus] + C[C@]1(O)C[C@@H](c2nc(-c3ccc4ccc(-c5ccccc5)nc4c3)c3c(N)nccn32)C1 [Linsitinib] (partner 1 µM)
A digest of the protocol: as §1

As to HOP-62, the relative viability in the assay with Everolimus + OSI-027 (first compound 0.01 µM) turned out to be 0.548; with Everolimus + OSI-027 (first compound 0.03162 µM), 0.511; in the assay with Everolimus + OSI-027 (first compound 0.1 µM), 0.448; in the assay with Everolimus + OSI-027 (first compound 0.3162 µM), 0.517; with Everolimus + OSI-027 (first compound 1 µM), 0.503; with Everolimus + Luminespib (first compound 0.01 µM), 0.918. Moreover, the relative viability with Everolimus + Luminespib (first compound 0.03162 µM) amounted to 0.853; in the assay with Everolimus + Luminespib (first compound 0.1 µM), 0.782; with Everolimus + Luminespib (first compound 0.3162 µM) it was 0.919; in the assay with Everolimus + Luminespib (first compound 1 µM) it was 0.926; with Everolimus + Lapatinib (first compound 0.01 µM), 0.646; with Everolimus + Lapatinib (first compound 0.03162 µM) it was 0.569. In addition, the relative viability is 0.533 with Everolimus + Lapatinib (first compound 0.1 µM); 0.659 with Everolimus + Lapatinib (first compound 0.3162 µM); 0.782 in the assay with Everolimus + Lapatinib (first compound 1 µM); 0.669 in the assay with Everolimus + Linsitinib (first compound 0.01 µM); 0.603 with Everolimus + Linsitinib (first compound 0.03162 µM); 0.477 in the assay with Everolimus + Linsitinib (first compound 0.1 µM). Further, the relative viability was 0.607 with Everolimus + Linsitinib (first compound 0.3162 µM) and 0.449 with Everolimus + Linsitinib (first compound 1 µM).

For the cell line NCI-H358, the relative viability came to 0.347 with Everolimus + OSI-027 (first compound 0.01 µM); 0.337 in the assay with Everolimus + OSI-027 (first compound 0.03162 µM); 0.336 with Everolimus + OSI-027 (first compound 0.1 µM); 0.34 in the assay with Everolimus + OSI-027 (first compound 0.3162 µM); 0.378 in the assay with Everolimus + OSI-027 (first compound 1 µM); 0.325 with Everolimus + Luminespib (first compound 0.01 µM). The relative viability with Everolimus + Luminespib (first compound 0.03162 µM) is 0.237; with Everolimus + Luminespib (first compound 0.1 µM), 0.196; with Everolimus + Luminespib (first compound 0.3162 µM), 0.214; with Everolimus + Luminespib (first compound 1 µM), 0.206; in the assay with Everolimus + Lapatinib (first compound 0.01 µM) it was 0.309; with Everolimus + Lapatinib (first compound 0.03162 µM), 0.338. The relative viability with Everolimus + Lapatinib (first compound 0.1 µM) stood at 0.377; with Everolimus + Lapatinib (first compound 0.3162 µM) it was 0.345; in the assay with Everolimus + Lapatinib (first compound 1 µM), 0.295; in the assay with Everolimus + Linsitinib (first compound 0.01 µM), 0.421; with Everolimus + Linsitinib (first compound 0.03162 µM), 0.533; with Everolimus + Linsitinib (first compound 0.1 µM), 0.544. In addition, the relative viability with Everolimus + Linsitinib (first compound 0.3162 µM) was 0.388; in the assay with Everolimus + Linsitinib (first compound 1 µM), 0.347.

As for SK-MES-1, the relative viability stood at 0.398 with Everolimus + OSI-027 (first compound 0.01 µM); 0.512 with Everolimus + OSI-027 (first compound 0.03162 µM); 0.499 in the assay with Everolimus + OSI-027 (first compound 0.1 µM); 0.414 in the assay with Everolimus + OSI-027 (first compound 0.3162 µM); 0.483 in the assay with Everolimus + OSI-027 (first compound 1 µM); 0.347 with Everolimus + Luminespib (first compound 0.01 µM). Also, the relative viability is 0.383 with Everolimus + Luminespib (first compound 0.03162 µM); 0.329 with Everolimus + Luminespib (first compound 0.1 µM); 0.281 with Everolimus + Luminespib (first compound 0.3162 µM); 0.331 in the assay with Everolimus + Luminespib (first compound 1 µM); 0.358 in the assay with Everolimus + Lapatinib (first compound 0.01 µM); 0.384 with Everolimus + Lapatinib (first compound 0.03162 µM). The relative viability is 0.326 with Everolimus + Lapatinib (first compound 0.1 µM); 0.384 with Everolimus + Lapatinib (first compound 0.3162 µM); 0.325 with Everolimus + Lapatinib (first compound 1 µM); 0.964 in the assay with Everolimus + Linsitinib (first compound 0.01 µM); 0.661 with Everolimus + Linsitinib (first compound 0.03162 µM); 0.689 with Everolimus + Linsitinib (first compound 0.1 µM). Besides, the relative viability with Everolimus + Linsitinib (first compound 0.3162 µM) stood at 0.606; with Everolimus + Linsitinib (first compound 1 µM) it was 0.511.

Regarding NCI-H1666, the relative viability came out at 0.722 in the assay with Everolimus + OSI-027 (first compound 0.01 µM); 0.725 with Everolimus + OSI-027 (first compound 0.03162 µM); 0.719 with Everolimus + OSI-027 (first compound 0.1 µM); 0.811 with Everolimus + OSI-027 (first compound 0.3162 µM); 0.722 in the assay with Everolimus + OSI-027 (first compound 1 µM); 0.898 with Everolimus + Luminespib (first compound 0.01 µM). The relative viability with Everolimus + Luminespib (first compound 0.03162 µM) was 0.964; in the assay with Everolimus + Luminespib (first compound 0.1 µM) it was 0.909; in the assay with Everolimus + Luminespib (first compound 0.3162 µM), 0.98; in the assay with Everolimus + Luminespib (first compound 1 µM), 0.929; in the assay with Everolimus + Lapatinib (first compound 0.01 µM) it was 0.459; in the assay with Everolimus + Lapatinib (first compound 0.03162 µM), 0.445. In addition, the relative viability with Everolimus + Lapatinib (first compound 0.1 µM) was found to be 0.335; in the assay with Everolimus + Lapatinib (first compound 0.3162 µM) it was 0.45; in the assay with Everolimus + Lapatinib (first compound 1 µM), 0.475; with Everolimus + Linsitinib (first compound 0.01 µM), 0.644; in the assay with Everolimus + Linsitinib (first compound 0.03162 µM), 0.407; in the assay with Everolimus + Linsitinib (first compound 0.1 µM) it was 0.468. For the same cell line, the relative viability with Everolimus + Linsitinib (first compound 0.3162 µM) came to 0.455; with Everolimus + Linsitinib (first compound 1 µM), 0.468.

NCI-H1355: the relative viability with Everolimus + OSI-027 (first compound 0.01 µM) is 0.281; in the assay with Everolimus + OSI-027 (first compound 0.03162 µM), 0.258; with Everolimus + OSI-027 (first compound 0.1 µM) it was 0.231; with Everolimus + OSI-027 (first compound 0.3162 µM) it was 0.299; in the assay with Everolimus + OSI-027 (first compound 1 µM), 0.241; with Everolimus + Luminespib (first compound 0.01 µM) it was 0.302. Moreover, the relative viability turned out to be 0.33 in the assay with Everolimus + Luminespib (first compound 0.03162 µM); 0.268 with Everolimus + Luminespib (first compound 0.1 µM); 0.258 with Everolimus + Luminespib (first compound 0.3162 µM); 0.265 with Everolimus + Luminespib (first compound 1 µM); 0.471 with Everolimus + Lapatinib (first compound 0.01 µM); 0.44 in the assay with Everolimus + Lapatinib (first compound 0.03162 µM). In addition, the relative viability with Everolimus + Lapatinib (first compound 0.1 µM) was determined as 0.363; in the assay with Everolimus + Lapatinib (first compound 0.3162 µM), 0.53; with Everolimus + Lapatinib (first compound 1 µM) it was 0.436; in the assay with Everolimus + Linsitinib (first compound 0.01 µM), 0.412; in the assay with Everolimus + Linsitinib (first compound 0.03162 µM), 0.322; with Everolimus + Linsitinib (first compound 0.1 µM) it was 0.348. For the same cell line, the relative viability in the assay with Everolimus + Linsitinib (first compound 0.3162 µM) worked out at 0.349; with Everolimus + Linsitinib (first compound 1 µM), 0.336.

Turning to HCC-827, the relative viability in the assay with Everolimus + OSI-027 (first compound 0.01 µM) stood at 0.624; with Everolimus + OSI-027 (first compound 0.03162 µM) it was 0.613; with Everolimus + OSI-027 (first compound 0.1 µM), 0.596; in the assay with Everolimus + OSI-027 (first compound 0.3162 µM), 0.482; with Everolimus + OSI-027 (first compound 1 µM) it was 0.47; with Everolimus + Luminespib (first compound 0.01 µM) it was 0.346. The relative viability stood at 0.33 with Everolimus + Luminespib (first compound 0.03162 µM); 0.204 with Everolimus + Luminespib (first compound 0.1 µM); 0.203 in the assay with Everolimus + Luminespib (first compound 0.3162 µM); 0.199 in the assay with Everolimus + Luminespib (first compound 1 µM); 0.191 in the assay with Everolimus + Lapatinib (first compound 0.01 µM); 0.13 in the assay with Everolimus + Lapatinib (first compound 0.03162 µM). In addition, the relative viability was 0.163 in the assay with Everolimus + Lapatinib (first compound 0.1 µM); 0.204 with Everolimus + Lapatinib (first compound 0.3162 µM); 0.153 with Everolimus + Lapatinib (first compound 1 µM); 1.01 with Everolimus + Linsitinib (first compound 0.01 µM); 0.977 with Everolimus + Linsitinib (first compound 0.03162 µM); 0.979 in the assay with Everolimus + Linsitinib (first compound 0.1 µM). For the same cell line, the relative viability with Everolimus + Linsitinib (first compound 0.3162 µM) was 1; with Everolimus + Linsitinib (first compound 1 µM), 0.838.

In the case of HARA, the relative viability in the assay with Everolimus + OSI-027 (first compound 0.01 µM) came out at 0.277; in the assay with Everolimus + OSI-027 (first compound 0.03162 µM), 0.345; with Everolimus + OSI-027 (first compound 0.3162 µM), 0.282; with Everolimus + OSI-027 (first compound 1 µM) it was 0.336; in the assay with Everolimus + Luminespib (first compound 0.01 µM) it was 0.748; with Everolimus + Luminespib (first compound 0.03162 µM), 0.768. Besides, the relative viability is 0.407 with Everolimus + Luminespib (first compound 0.3162 µM); 0.203 in the assay with Everolimus + Luminespib (first compound 1 µM); 0.546 with Everolimus + Lapatinib (first compound 0.01 µM); 0.468 with Everolimus + Lapatinib (first compound 0.03162 µM); 0.541 with Everolimus + Lapatinib (first compound 0.1 µM); 0.714 with Everolimus + Lapatinib (first compound 0.3162 µM). Also, the relative viability with Everolimus + Lapatinib (first compound 1 µM) worked out at 0.526; with Everolimus + Linsitinib (first compound 0.01 µM), 0.839; with Everolimus + Linsitinib (first compound 0.03162 µM), 0.8; with Everolimus + Linsitinib (first compound 0.1 µM), 0.646; with Everolimus + Linsitinib (first compound 0.3162 µM) it was 0.674; with Everolimus + Linsitinib (first compound 1 µM), 0.713.
